Source: ChEMBL document CHEMBL5696442, “Discovery of type II inhibitors of TGFβ-activated kinase 1 (TAK1) and mitogen-activated protein kinase kinase kinase kinase 2 (MAP4K2)” (J Med Chem, 2015)

Experiments:
[1] = target: Casein kinase I isoform epsilon (Homo sapiens) (UniProt P49674); assay: Inhibition of CK1epsilon Lys2 labeling site in human Huh-7 cell lysate at 1 uM by KiNativ Profiling analysis relative to control; format: subcellular
[2] = target: T1, Eukaryotic translation initiation factor 2-alpha kinase 3 (Homo sapiens) (UniProt Q9NZJ5); assay: Inhibition of PEK Lys2 labeling site in human Huh-7 cells at 1 uM by KiNativ Profiling analysis relative to control; format: cell-based
T1 sequence (whole entry): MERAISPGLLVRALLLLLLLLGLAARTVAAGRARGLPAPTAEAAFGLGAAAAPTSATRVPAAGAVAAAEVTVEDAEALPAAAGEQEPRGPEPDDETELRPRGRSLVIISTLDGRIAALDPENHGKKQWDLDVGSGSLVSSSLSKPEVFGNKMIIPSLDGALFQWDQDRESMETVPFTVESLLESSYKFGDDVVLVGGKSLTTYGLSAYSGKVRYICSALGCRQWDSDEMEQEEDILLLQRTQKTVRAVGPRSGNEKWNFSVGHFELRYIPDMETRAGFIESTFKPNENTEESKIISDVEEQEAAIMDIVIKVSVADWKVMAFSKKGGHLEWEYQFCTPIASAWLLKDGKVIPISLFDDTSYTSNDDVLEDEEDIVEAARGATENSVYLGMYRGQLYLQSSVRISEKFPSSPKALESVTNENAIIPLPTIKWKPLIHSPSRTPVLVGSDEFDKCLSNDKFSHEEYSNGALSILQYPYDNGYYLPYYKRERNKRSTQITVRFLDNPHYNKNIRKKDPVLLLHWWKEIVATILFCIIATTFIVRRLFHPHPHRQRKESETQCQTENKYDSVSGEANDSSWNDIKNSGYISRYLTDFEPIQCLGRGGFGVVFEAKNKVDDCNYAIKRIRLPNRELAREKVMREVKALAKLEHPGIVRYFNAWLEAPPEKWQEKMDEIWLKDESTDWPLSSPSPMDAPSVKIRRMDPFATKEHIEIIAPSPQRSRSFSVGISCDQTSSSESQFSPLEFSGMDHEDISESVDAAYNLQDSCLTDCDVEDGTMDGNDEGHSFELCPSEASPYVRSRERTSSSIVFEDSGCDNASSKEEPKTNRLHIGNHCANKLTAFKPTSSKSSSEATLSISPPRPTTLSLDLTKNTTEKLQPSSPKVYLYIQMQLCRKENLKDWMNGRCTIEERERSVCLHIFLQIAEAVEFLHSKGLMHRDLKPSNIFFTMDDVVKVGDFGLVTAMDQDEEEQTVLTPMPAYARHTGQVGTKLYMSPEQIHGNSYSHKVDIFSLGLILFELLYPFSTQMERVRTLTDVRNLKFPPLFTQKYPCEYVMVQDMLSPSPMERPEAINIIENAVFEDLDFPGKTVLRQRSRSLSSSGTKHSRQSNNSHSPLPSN

[3] = target: Serine/threonine-protein kinase MARK2 (Homo sapiens) (UniProt Q7KZI7); assay: Inhibition of MARK2 Lys1 labeling site harbouring EVAVKIIDKTQLNSSSLQK in human Huh-7 cell lysate at 1 uM by KiNativ Profiling analysis relative to control; format: subcellular
[4] = target: 5'-AMP-activated protein kinase catalytic subunit alpha-1 (Homo sapiens) (UniProt Q13131); assay: Inhibition of AMPK-alpha1 (unknown origin) at 1 uM by Ambit Kinomescan binding assay relative to control
[5] = target: Serine/threonine-protein kinase Chk2 (Homo sapiens) (UniProt O96017); assay: Inhibition of CHEK2 (unknown origin) at 1 uM by Ambit Kinomescan binding assay relative to control
[6] = target: Tyrosine-protein kinase Fes/Fps (Homo sapiens, UniProt P07332); assay: Inhibition of FES (unknown origin) at 1 uM by Ambit Kinomescan binding assay relative to control; values are per cent of control
[7] = target: MAP/microtubule affinity-regulating kinase 3 (Homo sapiens) (UniProt P27448); assay: Inhibition of MARK3 Lys1 labeling site in human A-375 cells at 0.5 uM by KiNativ Profiling analysis relative to control; format: cell-based
[8] = target: Activated CDC42 kinase 1 (Homo sapiens) (UniProt Q07912); assay: Inhibition of TNK2 (unknown origin) at 1 uM by Ambit Kinomescan binding assay relative to control
[9] = target: Interferon-induced, double-stranded RNA-activated protein kinase (Homo sapiens) (UniProt P19525); assay: Inhibition of PKR ACT labeling site in human Huh-7 cells at 10 uM by KiNativ Profiling analysis relative to control; format: cell-based
[10] = target: T2, Serine/threonine-protein kinase Sgk3 (Homo sapiens) (UniProt Q96BR1); assay: Inhibition of SGK3 K1 labeling site in human Huh-7 cells at 1 uM by KiNativ Profiling analysis relative to control; format: cell-based
T2 sequence (whole entry): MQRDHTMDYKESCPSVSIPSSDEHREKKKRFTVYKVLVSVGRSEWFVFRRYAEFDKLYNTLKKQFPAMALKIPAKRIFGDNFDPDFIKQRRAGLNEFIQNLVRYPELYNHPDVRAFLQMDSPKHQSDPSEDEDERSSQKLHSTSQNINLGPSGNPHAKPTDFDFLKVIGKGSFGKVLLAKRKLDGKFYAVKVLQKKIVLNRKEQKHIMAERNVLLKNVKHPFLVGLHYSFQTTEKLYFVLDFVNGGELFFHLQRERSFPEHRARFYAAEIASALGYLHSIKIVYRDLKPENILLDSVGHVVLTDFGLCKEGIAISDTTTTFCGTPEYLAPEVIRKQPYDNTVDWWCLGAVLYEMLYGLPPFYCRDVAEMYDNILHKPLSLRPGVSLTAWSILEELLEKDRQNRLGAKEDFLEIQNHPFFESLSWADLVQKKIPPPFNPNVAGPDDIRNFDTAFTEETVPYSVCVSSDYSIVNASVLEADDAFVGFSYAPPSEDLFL

[11] = target: T3, Mitogen-activated protein kinase 13 (Homo sapiens) (UniProt O15264); assay: Inhibition of p38delta (unknown origin) at 10 uM by Ambit Kinomescan binding assay relative to control; values are per cent of control
T3 sequence (whole entry): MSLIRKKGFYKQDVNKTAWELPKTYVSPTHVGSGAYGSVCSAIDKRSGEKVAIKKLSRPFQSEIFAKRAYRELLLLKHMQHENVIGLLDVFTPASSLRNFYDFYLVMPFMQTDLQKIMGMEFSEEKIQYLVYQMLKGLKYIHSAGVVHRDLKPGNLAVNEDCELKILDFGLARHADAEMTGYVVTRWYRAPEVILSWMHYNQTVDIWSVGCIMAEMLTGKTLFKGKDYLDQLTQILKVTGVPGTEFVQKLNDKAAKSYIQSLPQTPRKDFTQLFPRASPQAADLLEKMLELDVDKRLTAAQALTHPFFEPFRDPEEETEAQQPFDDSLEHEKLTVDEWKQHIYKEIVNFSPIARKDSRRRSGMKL

[12] = target: Serine/threonine-protein kinase SMG1 (Homo sapiens) (UniProt Q96Q15); assay: Inhibition of SMG1 ATP labeling site in human Huh-7 cells at 1 uM by KiNativ Profiling analysis relative to control; format: cell-based
Chain of Serine/threonine-protein kinase SMG1 (Homo sapiens) (Q96Q15 whole entry): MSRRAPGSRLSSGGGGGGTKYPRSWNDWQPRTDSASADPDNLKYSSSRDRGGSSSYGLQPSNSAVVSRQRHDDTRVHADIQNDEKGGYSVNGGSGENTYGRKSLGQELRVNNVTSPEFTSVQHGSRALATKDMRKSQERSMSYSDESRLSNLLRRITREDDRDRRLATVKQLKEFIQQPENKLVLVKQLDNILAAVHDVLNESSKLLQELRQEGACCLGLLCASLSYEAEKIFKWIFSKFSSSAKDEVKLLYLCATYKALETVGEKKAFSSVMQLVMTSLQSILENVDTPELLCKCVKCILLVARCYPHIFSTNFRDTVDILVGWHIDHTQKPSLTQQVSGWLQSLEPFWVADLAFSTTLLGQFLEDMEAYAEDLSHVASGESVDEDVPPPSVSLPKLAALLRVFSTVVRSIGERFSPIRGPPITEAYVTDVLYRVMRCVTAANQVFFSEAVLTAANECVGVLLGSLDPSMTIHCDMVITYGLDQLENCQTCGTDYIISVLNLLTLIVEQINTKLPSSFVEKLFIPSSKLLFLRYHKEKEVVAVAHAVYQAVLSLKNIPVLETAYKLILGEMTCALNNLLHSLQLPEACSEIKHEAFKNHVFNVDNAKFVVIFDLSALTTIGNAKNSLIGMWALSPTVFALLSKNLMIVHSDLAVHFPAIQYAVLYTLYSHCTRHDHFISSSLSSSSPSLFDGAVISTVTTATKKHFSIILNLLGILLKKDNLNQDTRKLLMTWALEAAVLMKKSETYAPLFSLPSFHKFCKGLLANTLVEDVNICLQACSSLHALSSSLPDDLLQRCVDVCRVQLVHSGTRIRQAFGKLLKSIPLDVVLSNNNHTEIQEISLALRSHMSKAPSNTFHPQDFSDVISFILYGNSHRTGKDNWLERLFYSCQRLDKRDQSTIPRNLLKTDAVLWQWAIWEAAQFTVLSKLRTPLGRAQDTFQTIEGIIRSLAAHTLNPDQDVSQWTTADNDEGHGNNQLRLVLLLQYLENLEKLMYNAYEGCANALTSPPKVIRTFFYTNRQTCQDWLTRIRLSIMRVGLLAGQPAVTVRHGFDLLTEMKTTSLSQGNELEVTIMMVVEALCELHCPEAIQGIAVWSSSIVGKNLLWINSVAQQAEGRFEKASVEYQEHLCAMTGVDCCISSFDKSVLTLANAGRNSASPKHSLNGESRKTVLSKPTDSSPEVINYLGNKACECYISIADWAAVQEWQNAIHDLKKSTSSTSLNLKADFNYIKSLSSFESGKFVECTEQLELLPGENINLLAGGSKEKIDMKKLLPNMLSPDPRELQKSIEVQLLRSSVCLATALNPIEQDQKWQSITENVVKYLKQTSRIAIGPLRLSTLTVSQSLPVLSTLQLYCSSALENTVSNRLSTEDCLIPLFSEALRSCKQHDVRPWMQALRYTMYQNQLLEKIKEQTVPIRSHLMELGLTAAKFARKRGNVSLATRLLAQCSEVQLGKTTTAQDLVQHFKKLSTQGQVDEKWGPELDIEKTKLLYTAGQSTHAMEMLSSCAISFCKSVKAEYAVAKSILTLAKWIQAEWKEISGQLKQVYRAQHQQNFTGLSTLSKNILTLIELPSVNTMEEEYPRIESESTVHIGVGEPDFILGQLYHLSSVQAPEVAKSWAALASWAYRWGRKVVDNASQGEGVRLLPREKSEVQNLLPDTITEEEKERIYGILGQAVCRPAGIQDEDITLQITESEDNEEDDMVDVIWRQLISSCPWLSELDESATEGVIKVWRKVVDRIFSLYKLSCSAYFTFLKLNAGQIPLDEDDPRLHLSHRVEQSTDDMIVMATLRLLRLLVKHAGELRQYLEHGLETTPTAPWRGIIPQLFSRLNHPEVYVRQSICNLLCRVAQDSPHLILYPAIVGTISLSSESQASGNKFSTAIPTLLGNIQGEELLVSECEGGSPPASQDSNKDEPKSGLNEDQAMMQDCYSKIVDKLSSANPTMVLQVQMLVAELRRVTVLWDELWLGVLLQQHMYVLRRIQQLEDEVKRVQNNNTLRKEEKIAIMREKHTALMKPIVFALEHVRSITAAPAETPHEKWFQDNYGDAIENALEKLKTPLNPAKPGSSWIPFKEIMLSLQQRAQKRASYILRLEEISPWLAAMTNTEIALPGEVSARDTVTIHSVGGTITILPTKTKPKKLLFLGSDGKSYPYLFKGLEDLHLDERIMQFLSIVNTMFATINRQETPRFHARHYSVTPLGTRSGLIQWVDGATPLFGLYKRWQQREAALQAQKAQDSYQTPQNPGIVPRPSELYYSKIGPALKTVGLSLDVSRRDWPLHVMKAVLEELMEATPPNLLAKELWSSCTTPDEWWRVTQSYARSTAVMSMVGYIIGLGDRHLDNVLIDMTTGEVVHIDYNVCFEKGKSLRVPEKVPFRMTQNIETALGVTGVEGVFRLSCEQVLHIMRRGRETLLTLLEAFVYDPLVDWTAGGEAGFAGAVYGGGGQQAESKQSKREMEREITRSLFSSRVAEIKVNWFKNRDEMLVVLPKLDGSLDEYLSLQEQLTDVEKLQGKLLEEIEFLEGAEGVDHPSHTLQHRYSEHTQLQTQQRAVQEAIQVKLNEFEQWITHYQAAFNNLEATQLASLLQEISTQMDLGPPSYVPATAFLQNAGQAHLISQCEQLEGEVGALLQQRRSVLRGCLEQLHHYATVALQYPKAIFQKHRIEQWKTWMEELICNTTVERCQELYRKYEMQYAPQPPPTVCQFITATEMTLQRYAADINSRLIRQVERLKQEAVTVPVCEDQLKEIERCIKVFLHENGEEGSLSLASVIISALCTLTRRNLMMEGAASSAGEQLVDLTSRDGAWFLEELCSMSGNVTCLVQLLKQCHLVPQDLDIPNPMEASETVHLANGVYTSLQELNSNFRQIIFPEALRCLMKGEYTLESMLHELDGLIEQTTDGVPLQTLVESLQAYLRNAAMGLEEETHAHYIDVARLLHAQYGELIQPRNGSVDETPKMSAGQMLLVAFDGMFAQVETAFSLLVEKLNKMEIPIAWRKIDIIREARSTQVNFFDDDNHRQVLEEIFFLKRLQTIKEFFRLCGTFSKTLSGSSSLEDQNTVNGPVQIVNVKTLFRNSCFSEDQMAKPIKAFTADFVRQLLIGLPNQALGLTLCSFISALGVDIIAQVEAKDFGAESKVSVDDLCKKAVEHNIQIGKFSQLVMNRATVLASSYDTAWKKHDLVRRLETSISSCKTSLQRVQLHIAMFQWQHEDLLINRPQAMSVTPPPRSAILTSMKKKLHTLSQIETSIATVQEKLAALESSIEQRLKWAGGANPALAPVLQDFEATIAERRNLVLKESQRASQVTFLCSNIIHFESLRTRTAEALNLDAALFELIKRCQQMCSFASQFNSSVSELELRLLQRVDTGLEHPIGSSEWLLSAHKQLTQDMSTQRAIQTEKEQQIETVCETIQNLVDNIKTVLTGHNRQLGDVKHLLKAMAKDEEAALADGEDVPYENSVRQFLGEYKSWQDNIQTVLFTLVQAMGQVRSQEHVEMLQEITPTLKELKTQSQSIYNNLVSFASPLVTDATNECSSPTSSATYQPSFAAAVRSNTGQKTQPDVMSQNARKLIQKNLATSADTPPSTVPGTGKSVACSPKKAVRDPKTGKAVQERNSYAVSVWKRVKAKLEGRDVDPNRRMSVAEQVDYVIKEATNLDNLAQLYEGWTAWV

Chain of Casein kinase I isoform epsilon (Homo sapiens) (P49674 whole entry, looked up, canonical isoform): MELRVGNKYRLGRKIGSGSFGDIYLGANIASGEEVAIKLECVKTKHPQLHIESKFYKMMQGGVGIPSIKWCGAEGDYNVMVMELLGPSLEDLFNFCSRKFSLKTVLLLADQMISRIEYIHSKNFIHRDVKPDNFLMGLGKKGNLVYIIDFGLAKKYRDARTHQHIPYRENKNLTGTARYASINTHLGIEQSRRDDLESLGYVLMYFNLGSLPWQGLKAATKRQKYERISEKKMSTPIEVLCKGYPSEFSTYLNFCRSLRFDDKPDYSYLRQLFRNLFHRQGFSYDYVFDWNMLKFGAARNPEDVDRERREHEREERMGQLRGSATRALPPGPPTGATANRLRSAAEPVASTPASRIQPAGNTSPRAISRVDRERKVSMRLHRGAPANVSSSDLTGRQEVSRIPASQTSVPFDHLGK
Chain of Serine/threonine-protein kinase Chk2 (Homo sapiens) (O96017 whole entry): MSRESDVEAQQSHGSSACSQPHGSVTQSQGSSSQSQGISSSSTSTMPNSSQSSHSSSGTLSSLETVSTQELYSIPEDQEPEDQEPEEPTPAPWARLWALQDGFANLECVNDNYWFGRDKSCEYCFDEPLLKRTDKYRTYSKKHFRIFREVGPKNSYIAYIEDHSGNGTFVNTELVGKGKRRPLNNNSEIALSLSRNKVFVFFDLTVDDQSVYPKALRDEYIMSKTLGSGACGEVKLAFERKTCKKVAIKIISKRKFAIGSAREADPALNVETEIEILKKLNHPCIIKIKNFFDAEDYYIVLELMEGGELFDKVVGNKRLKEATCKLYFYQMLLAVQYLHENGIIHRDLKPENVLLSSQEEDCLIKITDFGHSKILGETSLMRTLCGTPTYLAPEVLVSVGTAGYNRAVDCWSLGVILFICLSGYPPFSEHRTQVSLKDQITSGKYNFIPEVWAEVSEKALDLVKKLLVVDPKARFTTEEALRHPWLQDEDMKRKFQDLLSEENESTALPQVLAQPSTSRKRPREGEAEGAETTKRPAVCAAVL

Work on `CNc1cc(Oc2cc(C(=O)Nc3cc(N4CCN(C)CC4)cc(C(F)(F)F)c3)ccc2C)ncn1` yielded an inhibition [1] of 0.6%, an inhibition [2] of 16.8% and an inhibition [3] of 7.4%.

For `CCN1CCN(Cc2ccc(NC(=O)c3ccc(C)c(/C=C/c4cnc5[nH]ccc5c4OC)c3)cc2C(F)(F)F)CC1`, the inhibition [4] was 25%, the inhibition [5] was 82% and the residual activity [6] was 6.8%. It also gave an inhibition [7] of 12.3% and an inhibition [8] of 5.4%.

In the case of `CCN1CCN(Cc2ccc(NC(=O)c3ccc(C)c(Oc4ccnc5[nH]ccc45)c3)cc2C(F)(F)F)CC1`, the inhibition [9] is reported as 40.8%, the inhibition [10] is reported as 8.8% and the percent of control [11] is reported as 0.55%. The inhibition [12] was 13%.
